PMC7395068, “The evolution of strategies to minimise the risk of human drug-induced liver injury (DILI) in drug discovery and development” (Archives of Toxicology, 2020)
Read-outs that look alike come from different tables or passages of the source.

Columns and labels:
[1] = Plasma free fraction (fu) and unbound Cmax (Cmax,u); format: in vitro ADME, human; conditions: unbound plasma Cmax
Experimental: The prediction of DILI severity was evaluated further using the 3D combined HCI assays using plasma-free fraction. The majority of fu values were obtained from literature, when unavailable in-house prediction was utilised. Unbound plasma Cmax concentrations (Cmax,u) were derived by multiplying total plasma Cmax with the corresponding free fraction (fu) for each compound.

PHH 3D spheroids = system: PHH 3D spheroids; set-up: method as in Bell et al. 2018; conditions: 14-day exposure, three donors, ref Bell et al. 2018; cited from earlier work
OATP1B1 = conditions: known substrates; cited from earlier work
[2] = cited from earlier work
[3] = system: primary human hepatocytes, NIH3T3 fibroblasts, BSEP, CYP3A4; conditions: cited from earlier work
[4] = system: THLE or HepG2 cells, isolated mitochondria, BSEP; conditions: cited from earlier work
PHH = conditions: cited from earlier work
hLiMTs [5] = conditions: cited from earlier work
PHH spheroids = conditions: cited from earlier work
[6] = system: HepG2 C3A spheroid, BSEP, Glu/Gal in HepG2 cells, bioactivation; conditions: cited from earlier work
[7] = read-out: Human plasma Cmax; total plasma Cmax.tot, median of 9 literature references; cited from earlier work
[8] = plasma free fraction; cited from earlier work
[9] = cited from earlier work; remark: listed apart in the source
[10] = system: THLE-Null and THLE-3A4 cells; conditions: In vitro Assay; ref Gustafsson 2014; cited from earlier work
[11] = system: HepG2 cells, primary human hepatocytes; conditions: In vitro Assay; ref Garside 2014; cited from earlier work
[12] = ref Chen 2011; cited from earlier work
rBsep = conditions: In vitro Assay; ref Dawson 2012; cited from earlier work
hLiMTs [13] = assay: Combined HCI (HCS) and cellular ATP 3D assay in hLiMTs; conditions: for AC50 / minimal effective concentration: Homo sapiens
HepaRG spheroids = assay: Combined HCI (HCS) and cellular ATP 3D assay in HepaRG spheroids; conditions: for AC50 / minimal effective concentration: Homo sapiens
[14] = In vitro Assay, ref Schadt 2015
[15] = Modeled in vitro assays (cytotoxicity, mitochondrial dysfunction, BSEP), ref Aleo et al. 2019
[16] = In vitro Assay, ref Proctor 2017
[17] = Microtissue model structural based (HCI), combined HCS and ATP, MEC < 25 × Cmax.tot cut-off

COc1ccccc1Oc1c(NS(=O)(=O)c2ccc(C(C)(C)C)cc2)nc(-c2ncccn2)nc1OCCO [bosentan]
Human plasma Cmax,u [1]: 0.149 µM | detection at 10 × Cmax.tot cut-off (PHH 3D spheroids): only detected by one of three donors | substrate for hepatic uptake transporter OATP1B1 (OATP1B1): known substrates | DILI severity category (Chen et al. [2016]) ([2]; LTKB DILIrank category, ref Chen et al. 2016): Most | DILI severity category (Chen 2016) ([2]; human DILI classification, LTKB DILIrank, ref Chen et al. 2016): Most | DILI severity category ([2]; human DILI severity, ref Chen et al.): Most | DILI +VE (5-8), DILI -VE (-4) ([2]; ref Chen 2016): +VE | DILI severity category ([2]; ref Chen 2016): vMost-DILI-Concern | DILI in vitro assay prediction, Schadt (2015) ([3]; BSEP & Metabolism based, ref Schadt et al. 2015): +VE | Cellular toxicity (3T3 cells) [3, 14]: -VE | Combined Assay [3, 14]: +VE | GSH adduct HML [3, 14]: +VE | Hepatocyte cellular toxicity [3, 14]: +VE | MitoTox 3T3 [3, 14]: -VE | TDI CYP3A4 [3, 14]: -VE | hBSEP inhibition [3, 14]: +VE | Partition Hybrid HRM Score ([4]; In vitro Assay, ref Aleo 2019): +VE | Ro2 Hybrid HRM Score ([4]; In vitro Assay, ref Aleo 2019): +VE | Partition Hybrid HRM Score ≥4, Aleo (2019) [4, 15]: +VE (Partition Hybrid HRM Score ≥4) | Partition Hybrid HRM Score ≥8, Aleo (2019) [4, 15]: +VE (Partition Hybrid HRM Score ≥8) | Rule of Two hybrid HRM Score ≥3, Aleo (2019) [4, 15]: +VE (Rule of Two hybrid HRM Score ≥3) | Rule of Two hybrid HRM Score ≥8, Aleo (2019) [4, 15]: +VE (Rule of Two hybrid HRM Score ≥8) | PHH/100xCmax, Proctor (2017) (PHH; 2D PHH, ATP, IC50 < 100 × Cmax.tot, ref Proctor et al. 2017): -VE | PHH/100uM, Proctor (2017) (PHH; 2D PHH, ATP, IC50 threshold 100 µM, ref Proctor et al. 2017): -VE | PHH ATP <100uM (PHH; [16]): -VE | hLiMTs ATP <100uM (hLiMTs [5]; [16]): +VE (IC50 threshold of 100 µM) | hLiMTs/100xCmax, Proctor (2017) (hLiMTs [5]; hLiMTs, ATP, IC50 < 100 × Cmax.tot, ref Proctor et al. 2017): +VE (IC50 < 100 × Cmax.tot) | hLiMTs/100uM, Proctor (2017) (hLiMTs [5]; hLiMTs, ATP, IC50 threshold 100 µM, ref Proctor et al. 2017): +VE (IC50 threshold of 100 µM) | hLiMTs ATP <20 x Cmax (PHH spheroids; In vitro Assay, ref Vorrink 2018): +VE (IC20 < 20 × Cmax.tot cut-off) | DILI in vitro assay prediction, Vorrink (2018) (PHH spheroids; PHH spheroids, ATP, 14 days, IC20 < 20 × Cmax.tot, ref Vorrink et al. 2018): +VE (IC20 < 20 × Cmax.tot cut-off) | Bayesian Machine Learning DILI prediction, Williams (2019) ([6]; Bayesian modeling, ref Williams et al. 2019): +VE | Bayesian Machine Learning ([6]; In vitro Assay, ref Williams 2019): +VE | Cmax [7]: 7.43 µM | fu [8]: 0.020 | Assigned DILI category ([9]; Chen et al. 2016 or literature alignment, ref Chen et al. 2016): 3 | In vivo DILI ([9]; ref Aleo 2019): +VE | In vivo DILI ([9]; ref Dawson 2012): +VE | In vivo DILI ([9]; ref Garside 2014): +VE | In vivo DILI ([9]; ref Gustafsson 2014): +VE | In vivo DILI ([9]; ref Proctor 2017): +VE | In vivo DILI ([9]; ref Schadt 2015): +VE | In vivo DILI ([9]; ref Vorrink 2018): +VE | In vivo DILI ([9]; ref Williams 2019): +VE | THLE-Null [10]: -VE | THLE-Null/3A4 [10]: -VE | Cluster 1-6 +VE Assay [11]: -VE | DILI Score (FDA) (1-8) [12]: 7 | Inhibition of rBsep cutoff<1& cmax u>.2 (rBsep): +VE | Inhibition of rBsep cutoff<3 (rBsep): +VE | AC50 (hLiMTs [13]; read-out: ATP endpoint AC50): 57.9 µM | minimal effective concentration (hLiMTs [13]; read-out: ATP endpoint MEC): 29.4 µM | AC50 (hLiMTs [13]; read-out: HCS endpoint AC50): 179 µM | minimal effective concentration (hLiMTs [13]; read-out: HCS endpoint MEC): 63 µM | DILI prediction hLiMTs (HCS-MEC) (hLiMTs [13]; [17]): +VE (MEC < 25 × Cmax.tot cut-off) | hLiMTs <25x Avg Cmax ATP (hLiMTs [13]; hLiMTs, ATP endpoint, cut-off <25x Avg Cmax): +ve | hLiMTs <100x Avg Cmaxu ATP (hLiMTs [13]; hLiMTs, ATP endpoint, cut-off <100x Avg Cmaxu): -ve | hLiMTs <25x Avg Cmax HCS (hLiMTs [13]; hLiMTs, HCS endpoints, cut-off <25x Avg Cmax): +ve | hLiMTs <100x Avg Cmaxu HCS (hLiMTs [13]; hLiMTs, HCS endpoints, cut-off <100x Avg Cmaxu): -ve | hLiMTs <25x Avg Cmax All (hLiMTs [13]; hLiMTs, all endpoints (ATP and HCS), cut-off <25x Avg Cmax): +ve | hLiMTs Cmax max All (hLiMTs [13]; hLiMTs, all endpoints, Cmax max used): +ve | hLiMTs Cmax min All (hLiMTs [13]; hLiMTs, all endpoints, Cmax min used): +ve | hLiMTs <10 uM All (hLiMTs [13]; hLiMTs, all endpoints, cut-off <10 uM): -ve | hLiMTs <100x Avg Cmaxu All (hLiMTs [13]; hLiMTs, all endpoints, cut-off <100x Avg Cmaxu): -ve | HepaRG <25x Avg Cmax ATP (HepaRG spheroids; HepaRG, ATP endpoint, cut-off <25x Avg Cmax): +ve | HepaRG <100x Avg Cmaxu ATP (HepaRG spheroids; HepaRG, ATP endpoint, cut-off <100x Avg Cmaxu): -ve | HepaRG <25x Avg Cmax HCS (HepaRG spheroids; HepaRG, HCS endpoints, cut-off <25x Avg Cmax): +ve | HepaRG <100x Avg Cmaxu HCS (HepaRG spheroids; HepaRG, HCS endpoints, cut-off <100x Avg Cmaxu): -ve | HepaRG <25x Avg Cmax All (HepaRG spheroids; HepaRG, all endpoints (ATP and HCS), cut-off <25x Avg Cmax): +ve | HepaRG Cmax max All (HepaRG spheroids; HepaRG, all endpoints, Cmax max used): +ve | HepaRG Cmax min All (HepaRG spheroids; HepaRG, all endpoints, Cmax min used): +ve | HepaRG <10 uM All (HepaRG spheroids; HepaRG, all endpoints, cut-off <10 uM): -ve | HepaRG <100x Avg Cmaxu All (HepaRG spheroids; HepaRG, all endpoints, cut-off <100x Avg Cmaxu): -ve | AC50 (HepaRG spheroids; HepaRG, read-out: ATP endpoint AC50): 74.7 µM | minimal effective concentration (HepaRG spheroids; HepaRG, read-out: ATP endpoint MEC): 35.2 µM | AC50 (HepaRG spheroids; HepaRG, read-out: HCS endpoint AC50): 125 µM | minimal effective concentration (HepaRG spheroids; HepaRG, read-out: HCS endpoint MEC): 40 µM | DILI prediction HepaRG spheroids (HCS-MEC) (HepaRG spheroids; [17]): +VE (MEC < 25 × Cmax.tot cut-off)
